Results published in US20240206469A1, “PHOSPHORUS USE EFFICIENCY ENHANCERS AS PLANT GROWTH PROMOTORS” (EUROCHEM ANTWERPEN, priority 2021, published 2024).

Columns and labels:
[1] = system: SPX1 phosphate starvation biomarker; assay: Chemical activity assessment with Arabidopsis pSPX1::GUS reporter line (GUS stained area); assay type: in vivo, Arabidopsis thaliana; details: low phosphate, 50 μM, 7 days after germination; compare with low phosphate controls of same plate (Table 5 c3)
Procedure: (§1) All Arabidopsis plant experiments were performed using the Arabidopsis thaliana Columbia-0 background. The Arabidopsis pSPX1::GUS line is described in the Plant Journal 2008, 54: 965-975. For rice, the cultivar Nipponbare was used. For maize, the cultivars DKC 2931 and B104 were used for regular pot experiments and sand-based pot experiments, respectively. For soybean, the cultivar Primus was used. […] The medium was solidified due to the addition of 0.6% Gelrite, unless stated otherwise. In case of vertical plates (root length and root hair measurements), the medium was supplied with 0.5% of sucrose and 1 μM (low phosphate, 1 μM KH2PO4, 9.9 mM KCl), 10 μM (low phosphate 10 μM KH2PO4, 9.9 mM KCl) or 1.25 mM KH2PO4 (high phosphate). Arabidopsis seeds were stratified for 2 days at 4° C. before germination. Seedlings were germinated in climate-controlled growth chambers at 22° C. under continuous light (100 μmol m^−2 s^−1). Husked rice seeds were germinated on wetted Whatman paper for 2 days at 37° C. and then transferred to Sterivent boxes or square Petri dishes with solid medium. Maize and soybean seeds were wetted 24 hours at room temperature prior to sowing in pots.
For the chemical activity assessment 3 to 8 seeds per well of Arabidopsis pSPX1::GUS line were sown in 96-well plates containing 150 μl of low phosphate modMS liquid medium containing 1% of sucrose. Compounds were added in 50 μM concentration, starting from a 5 mM stock of compounds solved in DMSO. Different chemical substances were separately added to different wells. Per plate, 16 control wells were used, 8 containing only the low phosphate medium and 1% DMSO, and 8 containing high phosphate medium and 1% DMSO. 7 days after germination, plates were scanned using a flatbed scanner (EPSON Expression 11000XL) and analyzed for leaf size. After scanning, the growth medium was replaced by GUS staining solution (see Plant Mol. Biol. Rep. 1994, 12: 37-42 for details) and incubated for 1.5 hours at 37° C. The plates were scanned a second time and analyzed for GUS signal area. Measurements of both leaf area and GUS signal area were conducted by filtering out and measure the green and blue signal, respectively using ImageJ software. If the green leaf area was 50% or less than the control, samples were omitted. Additionally, all results were visually screened for leaf size and GUS signal.

[2] = system: Arabidopsis root hairs; assay: Root hair number and length quantification; assay type: in vivo, Arabidopsis thaliana; details: Arabidopsis thaliana, read-out: Total root hair length per root (in % compared to the control)
Procedure: as §1
Roots were imaged using a stereomicroscope or a VHX-6000. Number and length of the root hairs parallel to the medium surface was determined at 4 to 6 mm above the root meristem. Root hair length was measured using the ImageJ software.

[3] = system: Maize; assay: Maize growth experiment in pots with mixture of unfertilized potting soil and sand (leaf 5); assay type: in vivo
Procedure: For a subset of compounds, we performed a more extensive analysis on their root hair inducing effect in a dose-response experiment (Table 3). This confirms that the more simple structures 8.14 and 8.14.6 still retain the activity of compound 8. […] To validate this, we performed a maize growth experiment using compound 8 and the, based on the increase of total root hair length, stronger variant 8.14.6. The experiment was conducted in pots with a mixture of unfertilized potting soil and sand, and leaf 5 was measured after 29 days (Table 4).

| SMILES | GUS (SPX1) stained area normalized to the number of seeds [1] [pixels] | activity at 0.6 µM [2] [%] | activity at 1.25 µM [2] [%] | also measured |
| --- | --- | --- | --- | --- |
| CC(C)(C)c1csc(NC(=O)CN2C(=O)COc3ccccc32)n1 [Compound 8.14.4] | 46 |  |  |  |
| Cc1ccc2c(c1)OC(C)CN2CC(N)=O (centres unmarked) [Compound 8.14] | 2 | 231 | 343 | activity at 2.5 µM ([2]; 2.5 μM): 493%; activity at 5 µM ([2]; 5 μM): 803% |
| CN(Cc1ccc(Br)s1)C(=O)CN1C(=O)CCOc2ccccc21 [Compound 8.14.2] | 39 |  |  |  |
| O=C(CN1CC(C(=O)N2CCCCC2)Oc2ccccc21)N1CC=C(c2ccccc2)CC1 (centres unmarked) [Compound 8.14.1] | 22 |  |  |  |
| COc1ccc(C)cc1NCC(N)=O [Compound 8.14.6] | 2 | 231 | 592 | Growth-promoting effect on maize versus compound 8 ([3]; leaf 5 after 29 days): even a stronger growth-promoting effect; Leaf 5 ([3]; maize, pots with unfertilized potting soil and sand, after 29 days, control 38.1): 41.8 cm |
| COc1ccc([N+](=O)[O-])cc1NCC(=O)N1CCCC1c1cccs1 (centres unmarked) [Compound 8.14.5] | 93 |  |  |  |
